SMILES strings stand for the structures.

We go through six compounds from ChEMBL document CHEMBL5247658, “Development of Fluorescent 4-[4-(3H-Spiro[isobenzofuran-1,4'-piperidin]-1'-yl)butyl]indolyl Derivatives as High-Affinity Probes to Enable the Study of σ Receptors via Fluorescence-Based Techniques” (J Med Chem, 2023).

Data set [1] addresses T1, Sigma intracellular receptor 2 (Homo sapiens, UniProt Q5BJF2). Description: Binding affinity to sigma 2 receptor (unknown origin) assessed as inhibition constant.
A short description of data set [2]: Drug accumulation in human MCF7 cells assessed as increase in mean fluorescence intensity pretreated with (+)-pentazocine for 60 mins followed by compound addition incubated for 45 mins by flow cytometric analysis. Type of data set: ADME, cell-based. The following applies: mcf7, 0.75 h, dose 0.01-1 µM. Background: In flow cytometry, cells or beads pass a laser one at a time.

The nature of data set [3]: Drug accumulation in human MCF7 TMEM97 knock out cells assessed as increase in mean fluorescence intensity pretreated with (+)-pentazocine for 60 mins followed by compound addition incubated for 45 mins by flow cytometric analysis. Type of data set: ADME, cell-based. The following applies: mcf7, 0.75 h, dose 0.01-1 µM.
The nature of data set [4]: Drug uptake in human MCF7 cells expressing sigma 1 receptor assessed as increase in fluorescence intensity in presence of (+)-pentazocine incubated at 1 to 10000 nM for 45 mins by flow cytometric analysis. Format: ADME, cell-based. The following applies: mcf7, 0.75 h, 10 µM, dose 1-10000 nM.
Data set [5] concerns the target T1, Sigma intracellular receptor 2. Description: Binding affinity to sigma 2 receptor in human MCF7 cells assessed as increase in fluorescent intensity pretreated with (+)-pentazocine for 60 mins followed by compound addition incubated for 45 mins by flow cytometric analysis. The following applies: dose 0.01-1 µM. Type of data set: cell-based.
Data set [6] addresses T2, Sigma non-opioid intracellular receptor 1 (Cavia porcellus, UniProt Q60492). The data set is described as follows: Displacement of [3H](+)-pentazocine from sigma 1 receptor in guinea pig brain membranes assessed as inhibition constant by Wallac 1450 MicroBeta liquid scintillation counter. Format: cell membranes, Membrane. (Displacement assays read how much labelled ligand stays bound in the presence of the test substance.)

Data set [7] deals with T3, Sigma intracellular receptor 2 (Rattus norvegicus, UniProt Q5U3Y7).
T3 sequence (Q5U3Y7 whole entry): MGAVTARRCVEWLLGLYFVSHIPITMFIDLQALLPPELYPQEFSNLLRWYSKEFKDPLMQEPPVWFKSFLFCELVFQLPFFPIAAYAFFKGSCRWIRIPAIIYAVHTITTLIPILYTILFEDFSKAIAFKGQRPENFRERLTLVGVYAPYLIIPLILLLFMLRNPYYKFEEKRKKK
Description: Displacement of [3H]RHM-1 from sigma 2 receptor in Wistar Han rat liver membrane assessed as inhibition constant by competitive binding assay. Format: cell membranes.

In data set [8] the target is T2, Sigma non-opioid intracellular receptor 1. The data set is described as follows: Displacement of [3H](+)-pentazocine from sigma 1 receptor in guinea pig brain membranes assessed as inhibition constant by competitive binding assay. Type of data set: cell membranes, Membrane.
Data set [9] concerns the target T3, Sigma intracellular receptor 2. Description: Displacement of [3H]DTG from sigma 2 receptor in Wistar Han rat liver membrane assessed as inhibition constant by competitive binding assay. Format: cell membranes.
Data set [10] addresses Sigma non-opioid intracellular receptor 1 (Homo sapiens, UniProt Q99720). Description: Binding affinity to sigma 1 receptor (unknown origin) assessed as inhibition constant.

T1 sequence (Q5BJF2 whole entry): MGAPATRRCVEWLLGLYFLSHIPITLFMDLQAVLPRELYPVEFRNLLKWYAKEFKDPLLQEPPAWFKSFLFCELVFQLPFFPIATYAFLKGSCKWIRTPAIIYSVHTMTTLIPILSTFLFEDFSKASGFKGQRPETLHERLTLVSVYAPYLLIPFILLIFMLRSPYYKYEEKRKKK
T2 sequence (Q60492 whole entry): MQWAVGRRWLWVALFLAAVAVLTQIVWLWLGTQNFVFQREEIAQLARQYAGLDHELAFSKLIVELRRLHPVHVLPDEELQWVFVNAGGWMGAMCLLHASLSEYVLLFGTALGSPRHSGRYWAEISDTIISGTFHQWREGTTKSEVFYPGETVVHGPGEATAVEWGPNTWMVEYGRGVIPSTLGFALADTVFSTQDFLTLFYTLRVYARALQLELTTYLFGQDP
Sigma non-opioid intracellular receptor 1 (Homo sapiens, UniProt Q99720), sequence (Q99720 whole entry): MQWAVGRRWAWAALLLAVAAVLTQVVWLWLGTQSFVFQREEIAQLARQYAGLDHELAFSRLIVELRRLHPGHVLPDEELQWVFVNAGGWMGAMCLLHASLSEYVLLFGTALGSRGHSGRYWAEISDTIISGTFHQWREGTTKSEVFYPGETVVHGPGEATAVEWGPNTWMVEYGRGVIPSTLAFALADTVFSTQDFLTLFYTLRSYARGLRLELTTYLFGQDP

Regarding `CN(C)c1ccc2c(c1)C(=O)N(Oc1cccc3c1CCCC3CCCN1CCN(C3CCCCC3)CC1)C2=O` (configuration not stated), in data set [1], the Ki (in general, the dissociation constant of the complex between target and ligand, obtained from inhibition or displacement) amounted to 6.9 nM.
As to `C[N+]1=C(/C=C/C=C/C=C2\N(CCCCCC(=O)NCCCCCCn3cc(CCCCN4CCC5(CC4)OCc4ccccc45)c4ccccc43)c3ccccc3C2(C)C)C(C)(C)c2ccccc21.[I-]`, the Drug uptake result in [2] is reported as “Dose-Dependent Effect”; in data set [3] it was “Dose-Dependent Effect”; in data set [4] it was “Not Active”. Also, the Activity result in data set [5] is “Dose-Dependent Effect”.
As to `COc1ccc(C)cc1NC(=O)OC1C[C@H]2CCC[C@@H](C1)N2CCCCCCCCCCS(=O)(=O)c1cccc2c(N(C)C)cccc12` (some centres not stated), the Ki in data set [6] was found to be 1.05 nM; in [7], 14 nM.
In the case of `C[N+]1=C(/C=C/C=C/C=C2/N(CCCCCC(=O)Nc3ccc4ccn(CCCCN5CCC6(CC5)OCc5ccccc56)c4c3)c3ccccc3C2(C)C)C(C)(C)c2ccccc21.[I-]`, the Drug uptake result in data set [2] is on record as “Dose-Dependent Effect”.
With `COc1cc2c(cc1OC)CN(CCCN1CCc3c(OCCCCCCN4C(=O)c5ccc(N(C)C)cc5C4=O)cccc3C1=O)CC2`, the Ki in data set [8] is greater than 5000 nM; in data set [9], 10.2 nM.
For the compound `CC1CCN(CCCCc2cccc3cc(OCCCCCCN4C(=O)c5ccc(N(C)C)cc5C4=O)ccc23)CC1`, the figures for the inhibitory constant (Ki) in data set [10] and in data set [1] were 0.03 nM and 17.9 nM, respectively.
